# Assay results: the supplement of paper PMC10307832
# Experiments:
# Assay in all cases: relative viability (nuclei count vs DMSO), 5 days (fraction); higher = more cells survive
# [1] = compound: C1=CC2=C(C=CC(=C2)C=C3C(=O)NC(=NCC4=CC=CS4)S3)N=C1 [RO-3306] + Cc1nc(NC(=O)N2CCC[C@H]2C(N)=O)sc1-c1ccnc(C(C)(C)C(F)(F)F)c1 [Alpelisib] (partner 2 µM)
# Summary of the method: (§1)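 Lung cancer cell lines were pin-tool dosed in 1536-well plates on the day after seeding, with either a lone drug or a fixed anchor-drug dose plus five library-drug doses (not always all listed) in √10 steps. Nuclei were counted on 4× images after 5 days. Relative viability is the ratio of treated-well to vehicle-well nuclei counts, with each value a median of duplicate plates.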
# [2] = compound: O=S(=O)(c1ccccc1)N(CC(F)(F)F)c1ccc(C(O)(C(F)(F)F)C(F)(F)F)cc1 + CCNC(=O)c1noc(-c2cc(C(C)C)c(O)cc2O)c1-c1ccc(CN2CCOCC2)cc1 [Luminespib] (partner 0.01 µM)
# Summary of the method: as §1
# [3] = compound: O=S(=O)(c1ccccc1)N(CC(F)(F)F)c1ccc(C(O)(C(F)(F)F)C(F)(F)F)cc1 + C[C@]1(O)C[C@@H](c2nc(-c3ccc4ccc(-c5ccccc5)nc4c3)c3c(N)nccn32)C1 [Linsitinib] (partner 1 µM)
# Summary of the method: as §1
# [4] = compound: C1=CC2=C(C=CC(=C2)C=C3C(=O)NC(=NCC4=CC=CS4)S3)N=C1 [RO-3306] + Nc1nc2[nH]cc(CCc3ccc(C(=O)N[C@@H](CCC(=O)O)C(=O)O)cc3)c2c(=O)[nH]1 [Pemetrexed] (partner 0.2 µM)
# Summary of the method: as §1
cell line,measurement,setting,value
UMC-11,relative viability,[1]; first compound 0.01 µM,1.03
same,relative viability,[1]; first compound 0.03162 µM,0.753
same,relative viability,[1]; first compound 0.1 µM,0.948
same,relative viability,[1]; first compound 0.3162 µM,1.18
same,relative viability,[1]; first compound 1 µM,1.12
same,relative viability,[2]; first compound 0.8 µM,1.19
same,relative viability,[2]; first compound 2.53 µM,1.13
same,relative viability,[2]; first compound 8 µM,1.13
same,relative viability,[3]; first compound 0.8 µM,1.13
same,relative viability,[3]; first compound 2.53 µM,1.08
same,relative viability,[3]; first compound 8 µM,1.13
same,relative viability,[4]; first compound 0.01 µM,0.906
same,relative viability,[4]; first compound 0.03162 µM,0.746
same,relative viability,[4]; first compound 0.1 µM,0.816
same,relative viability,[4]; first compound 0.3162 µM,0.816
same,relative viability,[4]; first compound 1 µM,0.791
